Source: DBAASP
Converted amounts (≈) assume the structure as drawn. One block for each compound: values may come before it.

Columns and labels:
Assay in all cases: ≥ marks a high value that may be exact or a test limit, other limits are often not marked, values filed in µg/mL are converted to µM
[1] = test system: Candida albicans NCPF 1467
[2] = test system: Escherichia coli NCTC 10418
[3] = test system: Staphylococcus aureus NCTC 10788
Proteus mirabilis = test system: Proteus mirabilis
Bacillus subtilis = test system: Bacillus subtilis
Klebsiella pneumoniae = test system: Klebsiella pneumoniae
Shigella dysenteriae = test system: Shigella dysenteriae
Staphylococcus aureus = test system: Staphylococcus aureus
Pseudomonas aeruginosa = test system: Pseudomonas aeruginosa
Salmonella typhimurium = test system: Salmonella typhimurium
Micrococcus luteus = test system: Micrococcus luteus
Escherichia coli = test system: Escherichia coli
[4] = test system: Staphylococcus epidermidis
[5] = test system: Staphylococcus aureus USA 100
[6] = test system: Staphylococcus aureus USA 300
[7] = test system: Candida albicans ATCC 90028
[8] = test system: Staphylococcus aureus ATCC 25923
[9] = test system: Escherichia coli KCTC 1682
[10] = test system: Staphylococcus aureus KCTC 1621
[11] = test system: Pseudomonas aeruginosa ATCC 9027
[12] = test system: Staphylococcus epidermidis KCTC 1917
[13] = test system: Escherichia coli ATCC 25922
[14] = test system: Pseudomonas aeruginosa KCTC 1637
[15] = test system: Pseudomonas syringae pv. tomato DC3000
[16] = test system: Xanthomonas vesicatoria DSM 50861
[17] = test system: Pseudomonas corrugata DSM 7228
[18] = test system: Clavibacter michiganensis subsp. michiganensis DSM 46294
[19] = test system: Pseudomonas syringae pv. syringae DSM 10604
[20] = test system: Pectobacterium carotovorum subsp. carotovorum DSM 30168
[21] = test system: Escherichia coli DH5alpha
Staphylococcus xylosus = test system: Staphylococcus xylosus

MIC [6]: 25 µM (≈ 26.1 µg/mL)
MIC [7]: ≥ 100 µM
MIC [8]: 7.18 µM (≈ 7.49 µg/mL)
MIC [9]: 3.83 µM (≈ 4 µg/mL)
MIC [10]: 7.65 µM (≈ 7.99 µg/mL)
MIC [11]: > 100 µM
MIC [12]: 7.65 µM (≈ 7.99 µg/mL)
MIC [5]: 25 µM (≈ 26.1 µg/mL)
MIC [13]: 7.18 µM (≈ 7.49 µg/mL)
MIC [14]: 15.3 µM (≈ 16 µg/mL)
SMILES: NC(=O)[C@H](CCCN=C(N)N)NC(=O)[C@H](Cc1c[nH]c2ccccc12)NC(=O)[C@H](CCCN=C(N)N)NC(=O)[C@H](Cc1c[nH]c2ccccc12)NC(=O)[C@H](CCCN=C(N)N)NC(=O)[C@@H](N)Cc1c[nH]c2ccccc12 [WRWRWR]

MIC [15]: 6.33 µM (≈ 9.99 µg/mL)
MIC [16]: 6.33 µM (≈ 9.99 µg/mL)
MIC [17]: 0.316 µM (≈ 0.5 µg/mL)
MIC [18]: 3.16 µM (≈ 5 µg/mL)
MIC [19]: 0.158 µM (≈ 0.25 µg/mL)
MIC [20]: 6.33 µM (≈ 9.99 µg/mL)
SMILES: CC[C@H](C)[C@H](NC(=O)[C@H](CC(C)C)NC(=O)[C@H](CCCN=C(N)N)NC(=O)[C@H](CCCCN)NC(=O)[C@H](CC(C)C)NC(=O)[C@H](CC(C)C)NC(=O)[C@H](CCCCN)NC(=O)[C@H](CCCCN)NC(=O)[C@H](CCCN=C(N)N)NC(=O)[C@H](CCCCN)NC(=O)[C@H](CCCCN)NC(=O)[C@@H](N)CCCN=C(N)N)C(N)=O [RKKRKKLLKRLI]

MIC [21]: ≥ 64 µM
MIC (Staphylococcus xylosus): ≥ 64 µM
SMILES: CC[C@H](C)[C@H](NC(=O)[C@@H](N)CC(C)C)C(=O)N[C@@H](CCCCN)C(=O)N[C@@H](CCCN=C(N)N)C(=O)N[C@@H](CCCCN)C(=O)O [LIKRK]

MIC [21]: ≥ 64 µM
MIC (Staphylococcus xylosus): 8 µM (≈ 10.3 µg/mL)
SMILES: CC(C)[C@H](NC(=O)[C@H](CCCCN)NC(=O)[C@H](CCCCN)NC(=O)[C@@H](N)CCCCN)C(=O)N[C@H](C(=O)N[C@H](C(=O)N[C@H](C(=O)N[C@H](C(=O)N[C@@H](CCCCN)C(=O)N[C@@H](CCCCN)C(=O)N[C@@H](CCCCN)C(=O)O)C(C)C)C(C)C)C(C)C)C(C)C [KKKVVVVVKKK]

MIC [21]: 8 µM (≈ 10.8 µg/mL)
MIC (Staphylococcus xylosus): 0.5 µM (≈ 0.676 µg/mL)
SMILES: CC[C@H](C)[C@H](NC(=O)[C@H](CCCCN)NC(=O)[C@H](CCCCN)NC(=O)[C@@H](N)CCCCN)C(=O)N[C@H](C(=O)N[C@H](C(=O)N[C@H](C(=O)N[C@H](C(=O)N[C@@H](CCCCN)C(=O)N[C@@H](CCCCN)C(=O)N[C@@H](CCCCN)C(=O)O)[C@@H](C)CC)[C@@H](C)CC)[C@@H](C)CC)[C@@H](C)CC [KKKIIIIIKKK]

MIC [1]: 12.2 µM (≈ 32 µg/mL)
MIC [2]: 12.2 µM (≈ 32 µg/mL)
MIC [3]: 3.05 µM (≈ 8 µg/mL)
SMILES: CC[C@H](C)[C@H](NC(=O)CN)C(=O)NCC(=O)NCC(=O)N[C@@H](C)C(=O)N[C@@H](CC(C)C)C(=O)N[C@@H](CC(C)C)C(=O)N[C@@H](CC(N)=O)C(=O)N[C@H](C(=O)NCC(=O)N[C@@H](CCCCN)C(=O)N[C@H](C(=O)N[C@@H](C)C(=O)N[C@@H](CC(C)C)C(=O)N[C@@H](CCCCN)C(=O)NCC(=O)N[C@@H](CC(C)C)C(=O)N[C@@H](C)C(=O)N[C@@H](CCCCN)C(=O)NCC(=O)N[C@@H](CC(C)C)C(=O)N[C@@H](C)C(=O)N[C@@H](CCC(=O)O)C(=O)N[C@@H](Cc1cnc[nH]1)C(=O)N[C@@H](Cc1ccccc1)C(=O)N[C@@H](C)C(=O)N[C@@H](CC(N)=O)C(N)=O)C(C)C)C(C)C [GIGGALLNVGKVALKGLAKGLAEHFAN]

MIC [5]: ≥ 100 µM
SMILES: NCCCC[C@H](NC(=O)[C@H](Cc1c[nH]c2ccccc12)NC(=O)[C@H](CCCCN)NC(=O)[C@@H](N)Cc1c[nH]c2ccccc12)C(N)=O [WKWK]

Further lines, the compound ahead of its results:

SMILES: CC[C@H](C)[C@H](NC(=O)[C@H](CO)NC(=O)[C@H](CC(N)=O)NC(=O)[C@@H](NC(=O)[C@H](CC(C)C)NC(=O)[C@H](C)NC(=O)[C@H](CO)NC(=O)[C@H](C)NC(=O)[C@H](Cc1ccccc1)NC(=O)[C@H](CC(=O)O)NC(=O)[C@H](CCCCN)NC(=O)[C@H](C)NC(=O)CNC(=O)[C@H](CCCCN)NC(=O)[C@H](CCCCN)NC(=O)[C@H](CC(C)C)NC(=O)[C@H](CCCCN)NC(=O)[C@H](CCC(=O)O)NC(=O)[C@H](CC(C)C)NC(=O)[C@H](Cc1ccccc1)NC(=O)CN)C(C)C)C(=O)N[C@@H](CCCCN)C(=O)NCC(=O)N[C@H](C(=O)O)[C@@H](C)O [GFLEKLKKGAKDFASALVNSIKGT]
MIC [1]: ≥ 101 µM
MIC [2]: ≥ 50.7 µM
MIC [3]: ≥ 203 µM

SMILES: CC(C)C[C@H](NC(=O)[C@@H](NC(=O)[C@H](CCCCN)NC(=O)[C@H](CC(C)C)NC(=O)[C@H](C)NC(=O)[C@@H](NC(=O)[C@H](CCCCN)NC(=O)[C@H](Cc1ccccc1)NC(=O)[C@H](CC(C)C)NC(=O)[C@H](C)NC(=O)[C@H](CCCCN)NC(=O)[C@H](CC(C)C)NC(=O)[C@@H](N)Cc1ccccc1)C(C)C)C(C)C)C(=O)O [FLKALFKVALKVL]
MIC (Proteus mirabilis): ≥ 134 µM
MIC (Bacillus subtilis): 16.8 µM (≈ 25 µg/mL)
MIC (Klebsiella pneumoniae): 67.1 µM (≈ 100 µg/mL)
MIC (Shigella dysenteriae): ≥ 33.6 µM
MIC (Staphylococcus aureus): 2.08 µM (≈ 3.1 µg/mL)
MIC (Pseudomonas aeruginosa): > 134 µM
MIC (Salmonella typhimurium): ≥ 134 µM
MIC (Micrococcus luteus): 4.23 µM (≈ 6.3 µg/mL)
MIC (Escherichia coli): 33.6 µM (≈ 50 µg/mL)
MIC [4]: 2.08 µM (≈ 3.1 µg/mL)

SMILES: NC(=O)[C@H](CCCN=C(N)N)NC(=O)[C@H](CC(=O)O)NC(=O)[C@H](CCCN=C(N)N)NC(=O)[C@@H](N)CC(=O)O [DRDR]
MIC [5]: ≥ 100 µM

SMILES: NC(=O)[C@H](CCCN=C(N)N)NC(=O)[C@H](Cc1ccccc1)NC(=O)[C@H](CCCN=C(N)N)NC(=O)[C@@H](N)Cc1ccccc1 [FRFR]
MIC [5]: ≥ 100 µM

SMILES: CC[C@H](C)[C@H](NC(=O)[C@H](C)NC(=O)[C@H](CCCCN)NC(=O)[C@@H](NC(=O)[C@H](CC(C)C)NC(=O)CNC(=O)[C@H](CCCCN)NC(=O)[C@@H](NC(=O)[C@@H](NC(=O)[C@H](CCCCN)NC(=O)[C@@H]1CCCN1C(=O)[C@@H](NC(=O)[C@H](CC(C)C)NC(=O)[C@H](CCCCN)NC(=O)[C@H](Cc1ccccc1)NC(=O)[C@H](CC(C)C)NC(=O)[C@@H](N)Cc1ccccc1)[C@@H](C)CC)C(C)C)[C@@H](C)CC)C(C)C)C(=O)N[C@@H](CCCN=C(N)N)C(=O)N[C@@H](CCCCN)C(N)=O [FLFKLIPKVIKGLVKAIRK]
MIC [1]: 1.81 µM (≈ 4 µg/mL)
MIC [2]: 7.23 µM (≈ 16 µg/mL)
MIC [3]: 1.81 µM (≈ 4 µg/mL)

SMILES: CC[C@H](C)[C@H](NC(=O)[C@H](C)NC(=O)[C@H](CCCCN)NC(=O)[C@@H]1CCCN1C(=O)[C@@H](NC(=O)[C@H](CC(C)C)NC(=O)[C@H](CCCCN)NC(=O)[C@H](Cc1ccccc1)NC(=O)[C@H](CC(C)C)NC(=O)[C@@H](N)Cc1ccccc1)[C@@H](C)CC)C(=O)N[C@@H](CCCCN)C(=O)NCC(=O)N[C@@H](CC(C)C)C(=O)N[C@H](C(=O)N[C@@H](CCCCN)C(=O)N[C@@H](C)C(=O)N[C@@H](Cc1ccccc1)C(=O)N[C@H](C=O)CCCCN)[C@@H](C)CC [FLFKLIPKAIKGLIKAFK]
MIC [1]: 4 µM (≈ 8.24 µg/mL)
MIC [2]: 8 µM (≈ 16.5 µg/mL)
MIC [3]: 4 µM (≈ 8.24 µg/mL)

SMILES: CC(C)C[C@H](NC(=O)[C@H](C)N)C(=O)N[C@@H](Cc1ccccc1)C(=O)N[C@@H](CCCCN)C(=O)N[C@H](C(=O)N[C@@H](C)C(=O)N[C@@H](CO)C(=O)N[C@@H](CCCCN)C(=O)N[C@H](C(=O)N[C@@H](CC(C)C)C(=O)N1CCC[C@H]1C(=O)N[C@@H](CO)C(=O)N[C@H](C(=O)O)C(C)C)C(C)C)C(C)C [ALFKVASKVLPSV]
MIC (Proteus mirabilis): ≥ 147 µM
MIC (Bacillus subtilis): ≥ 147 µM
MIC (Klebsiella pneumoniae): > 147 µM
MIC (Shigella dysenteriae): ≥ 147 µM
MIC (Staphylococcus aureus): > 147 µM
MIC (Pseudomonas aeruginosa): > 147 µM
MIC (Salmonella typhimurium): ≥ 147 µM
MIC (Micrococcus luteus): ≥ 147 µM
MIC (Escherichia coli): > 147 µM
MIC [4]: ≥ 147 µM
